Starred links: 1 amine or outer side, 2 acyl side, 3 side chain; linkers in the order of their positions; H or OH if unused. Positions of bridges follow the written chain, without caps; N, C: chain ends. Non-standard residues stand in square brackets, D forms with d. Residues, ends and D or L forms follow the SMILES beside them. *: point of attachment. Phe(4-(4-pyridyl)) = N[C@@H](Cc1ccc(-c2ccncc2)cc1)C(=O)O; Phe(3-OCH2COOH) = N[C@@H](Cc1cccc(OCC(=O)O)c1)C(=O)O; Phe(4-COOH) = N[C@@H](Cc1ccc(C(=O)O)cc1)C(=O)O; Bip = N[C@@H](Cc1ccc(-c2ccccc2)cc1)C(=O)O; Gly(N(CH2)3COOH) = O=C(O)CCCNCC(=O)O; NMeY = CN[C@@H](Cc1ccc(O)cc1)C(=O)O; X1 = CCCCCCC[C@H](N[*:1])C(=O)[*:2]; Gly(cPent) = N[C@H](C(=O)O)C1CCCC1; NMeF = CN[C@@H](Cc1ccccc1)C(=O)O; NMeD = CN[C@@H](CC(=O)O)C(=O)O; Ahp(2) = CCCCC[C@H](N)C(=O)O; Carboxymethyl = O=C(O)C*; NMeA = CN[C@@H](C)C(=O)O; Sar = CNCC(=O)O
Key:
Assay type in all cases: cell-based
Myostatin [1] = assay: Reporter gene assay for myostatin signaling in HepG2 cell line, Evaluation Procedure (1), myostatin inhibition; conditions: Method A; GDF-11 IC50 versus Myostatin IC50
How it was run: (§1)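 IC50 derived from One-Glo luciferase luminescence after 20–24 h at 37 °C. Peptides titrated 4-fold at 0.006–100 nmol/L against myostatin or 0.12–2000 nmol/L against GDF-11 in HepG2 cells carrying a transfected CAGA12-luciferase reporter, kept in 0.1% BSA EMEM.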

Myostatin [2] = target: T1, Myostatin (Homo sapiens, UniProt O14793); assay: as above; conditions: Method A: Myostatin 10 ng/mL; read-out: IC50 (Luciferase) Myostatin HepG2
T1 construct: active myostatin (also called mature myostatin) is a homodimer consisting of two C-terminal growth factor domains; purchased R&D systems 788-G8/CF
T1 sequence (O14793 267-375): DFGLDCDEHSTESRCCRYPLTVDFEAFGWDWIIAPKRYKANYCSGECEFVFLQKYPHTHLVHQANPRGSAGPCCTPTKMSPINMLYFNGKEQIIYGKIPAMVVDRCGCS
How it was run: as §1

GDF-11 = target: T2, GDF-11 (Homo sapiens, UniProt O95390); assay: Reporter gene assay for myostatin signaling in HepG2 cell line, Evaluation Procedure (1), GDF-11 inhibition; conditions: Method A: GDF-11 10 ng/mL; read-out: IC50 (Luciferase) GDF-11 HepG2
T2 construct: purchased R&D systems 1958-GD-G8/CF
T2 sequence (O95390 299-407): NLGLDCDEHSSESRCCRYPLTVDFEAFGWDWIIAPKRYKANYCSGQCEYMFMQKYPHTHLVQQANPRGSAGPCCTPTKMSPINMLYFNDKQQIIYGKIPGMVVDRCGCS
How it was run: as §1

| SMILES | IC50 (Myostatin [2]) [nM] | IC50 (GDF-11) [nM] | Selectivity (Myostatin [1]) |
| --- | --- | --- | --- |
| CC[C@H](C)[C@@H]1NC(=O)[C@H](Cc2ccccc2)N(C)C(=O)[C@H](Cc2ccc(O)cc2)NC(=O)[C@H](Cc2ccc(-c3ccccc3)cc2)NC(=O)[C@H](C)NC(=O)CN(CCCC(=O)O)C(=O)CSC[C@H](C(=O)O)NC(=O)[C@H](Cc2ccccc2)N(C)C(=O)[C@H](C)N(C)C(=O)[C@H](CC(C)C)NC(=O)[C@H](Cc2ccccc2)N(C)C(=O)[C@H](CCCNC(=N)N)NC(=O)[C@H](Cc2ccc(OCC(=O)O)cc2)NC(=O)[C@H](Cc2cccc(OCC(=O)O)c2)NC(=O)CN(C)C1=O [Myostatin_99_v86] ({CH2CO}-[Gly(N(CH2)3COOH)]A[Bip]Y[NMeF]I[Sar][Phe(3-OCH2COOH)]Y(Carboxymethyl)R[NMeF]L[NMeA][NMeF][dC]-OH; thioether N-15) | 10.4 | 1650 | 159 |
| CC[C@H](C)[C@@H]1NC(=O)[C@H](Cc2ccccc2)N(C)C(=O)[C@H](Cc2ccc(O)cc2)NC(=O)[C@H](Cc2ccc(-c3ccncc3)cc2)NC(=O)CNC(=O)CN(CCCC(=O)O)C(=O)CSC[C@H](C(=O)O)NC(=O)[C@H](Cc2ccccc2)N(C)C(=O)[C@H](C)N(C)C(=O)[C@H](CC(C)C)NC(=O)[C@H](Cc2ccccc2)N(C)C(=O)[C@H](CCCNC(=N)N)NC(=O)[C@H](Cc2ccc(OCC(=O)O)cc2)NC(=O)[C@H](Cc2cccc(OCC(=O)O)c2)NC(=O)[C@H](C)N(C)C1=O [Myostatin_99_v91] ({CH2CO}-[Gly(N(CH2)3COOH)]G[Phe(4-(4-pyridyl))]Y[NMeF]I[NMeA][Phe(3-OCH2COOH)]Y(Carboxymethyl)R[NMeF]L[NMeA][NMeF][dC]-OH; thioether N-15) | 72.3 | 7380 | 102 |
| CC[C@H](C)[C@@H]1NC(=O)[C@H](Cc2ccccc2)N(C)C(=O)[C@H](Cc2ccc(O)cc2)NC(=O)[C@H](Cc2ccc(-c3ccncc3)cc2)NC(=O)CNC(=O)CN(CCCC(=O)O)C(=O)CSC[C@H](C(=O)O)NC(=O)[C@H](Cc2ccccc2)N(C)C(=O)[C@H](C)N(C)C(=O)[C@H](CC(C)C)NC(=O)[C@H](Cc2ccccc2)N(C)C(=O)[C@H](CCCNC(=N)N)NC(=O)[C@H](Cc2ccc(OCC(=O)O)cc2)NC(=O)[C@H](Cc2cccc(OCC(=O)O)c2)NC(=O)CN(C)C1=O [Myostatin_99_v92] ({CH2CO}-[Gly(N(CH2)3COOH)]G[Phe(4-(4-pyridyl))]Y[NMeF]I[Sar][Phe(3-OCH2COOH)]Y(Carboxymethyl)R[NMeF]L[NMeA][NMeF][dC]-OH; thioether N-15) | 78.1 | 3880 | 50 |
| CC[C@H](C)[C@@H]1NC(=O)[C@H](Cc2ccccc2)N(C)C(=O)[C@H](Cc2ccc(O)cc2)NC(=O)[C@H](Cc2ccc(-c3ccncc3)cc2)NC(=O)[C@H](C)NC(=O)[C@H](CC(=O)O)N(C)C(=O)CSC[C@H](C(=O)O)NC(=O)[C@H](Cc2ccccc2)N(C)C(=O)[C@H](C)N(C)C(=O)[C@H](CC(C)C)NC(=O)[C@H](Cc2ccccc2)N(C)C(=O)[C@H](CCCNC(=N)N)NC(=O)[C@H](Cc2ccc(OCC(=O)O)cc2)NC(=O)[C@H](Cc2cccc(OCC(=O)O)c2)NC(=O)CN(C)C1=O [Myostatin_99_v96] ({CH2CO}-[NMeD]A[Phe(4-(4-pyridyl))]Y[NMeF]I[Sar][Phe(3-OCH2COOH)]Y(Carboxymethyl)R[NMeF]L[NMeA][NMeF][dC]-OH; thioether N-15) | 88.8 | 26300 | 296 |
| CC[C@H](C)[C@@H]1NC(=O)[C@H](Cc2ccccc2)N(C)C(=O)[C@H](Cc2ccc(O)cc2)NC(=O)[C@H](Cc2ccc(-c3ccncc3)cc2)NC(=O)[C@H](C)NC(=O)[C@H](C)NC(=O)CSC[C@H](C(=O)O)NC(=O)[C@H](Cc2ccccc2)N(C)C(=O)[C@H](C)N(C)C(=O)[C@H](CC(C)C)NC(=O)[C@H](Cc2ccccc2)N(C)C(=O)[C@H](CCCNC(=N)N)NC(=O)[C@H](Cc2ccc(OCC(=O)O)cc2)NC(=O)[C@H](Cc2cccc(OCC(=O)O)c2)NC(=O)CN(C)C1=O [Myostatin_99_v107] ({CH2CO}-AA[Phe(4-(4-pyridyl))]Y[NMeF]I[Sar][Phe(3-OCH2COOH)]Y(Carboxymethyl)R[NMeF]L[NMeA][NMeF][dC]-OH; thioether N-15) | 2.8 | 466 | 166 |
| CC[C@H](C)[C@@H]1NC(=O)[C@H](Cc2ccccc2)N(C)C(=O)[C@H](Cc2ccc(O)cc2)NC(=O)[C@H](Cc2ccc(-c3ccccc3)cc2)NC(=O)[C@H](C)NC(=O)[C@H](C)NC(=O)CSC[C@H](C(=O)O)NC(=O)[C@H](Cc2ccccc2)N(C)C(=O)[C@H](C)N(C)C(=O)[C@H](CC(C)C)NC(=O)[C@H](Cc2ccccc2)N(C)C(=O)[C@H](CCCNC(=N)N)NC(=O)[C@H](Cc2ccc(OCC(=O)O)cc2)NC(=O)[C@H](Cc2cccc(OCC(=O)O)c2)NC(=O)CN(C)C1=O [Myostatin_99_v108] ({CH2CO}-AA[Bip]Y[NMeF]I[Sar][Phe(3-OCH2COOH)]Y(Carboxymethyl)R[NMeF]L[NMeA][NMeF][dC]-OH; thioether N-15) | 3.6 | 374 | 104 |

Second part, led by results:

| IC50 (Myostatin [2]) [nM] | IC50 (GDF-11) [nM] | SMILES | Selectivity (Myostatin [1]) |
| --- | --- | --- | --- |
| 5.4 | 1960 | CCCCC[C@@H]1NC(=O)[C@H](Cc2ccccc2)N(C)C(=O)[C@H](CCCNC(=N)N)NC(=O)[C@H](Cc2ccc(C(=O)O)cc2)NC(=O)[C@H](Cc2cccc(OCC(=O)O)c2)NC(=O)CN(C)C(=O)[C@H]([C@@H](C)CC)NC(=O)[C@H](Cc2ccc(O)cc2)N(C)C(=O)[C@H](Cc2ccc(O)cc2)NC(=O)[C@H](Cc2ccc(-c3ccccc3)cc2)NC(=O)[C@H](C)NC(=O)CN(CCCC(=O)O)C(=O)CSC[C@H](C(=O)O)NC(=O)[C@H](Cc2ccccc2)N(C)C(=O)[C@H](C)N(C)C1=O [Myostatin_99_v116] ({CH2CO}-[Gly(N(CH2)3COOH)]A[Bip]Y[NMeY]I[Sar][Phe(3-OCH2COOH)][Phe(4-COOH)]R[NMeF][Ahp(2)][NMeA][NMeF][dC]-OH; thioether N-15) | 364 |
| 1.7 | 713 | CCCCCCC[C@@H]1NC(=O)[C@H](Cc2ccccc2)N(C)C(=O)[C@H](CCCNC(=N)N)NC(=O)[C@H](Cc2ccc(C(=O)O)cc2)NC(=O)[C@H](Cc2cccc(OCC(=O)O)c2)NC(=O)CN(C)C(=O)[C@H]([C@@H](C)CC)NC(=O)[C@H](Cc2ccc(O)cc2)N(C)C(=O)[C@H](Cc2ccc(O)cc2)NC(=O)[C@H](Cc2ccc(-c3ccccc3)cc2)NC(=O)[C@H](C)NC(=O)CN(CCCC(=O)O)C(=O)CSC[C@H](C(=O)O)NC(=O)[C@H](Cc2ccccc2)N(C)C(=O)[C@H](C)N(C)C1=O [Myostatin_99_v117] ({CH2CO}-[Gly(N(CH2)3COOH)]A[Bip]Y[NMeY]I[Sar][Phe(3-OCH2COOH)][Phe(4-COOH)]R[NMeF][X1][NMeA][NMeF][dC]-OH; thioether N-15) | 419 |
| 38.1 | 7390 | CC[C@H](C)[C@@H]1NC(=O)[C@H](Cc2ccccc2)N(C)C(=O)[C@H](Cc2ccc(O)cc2)NC(=O)[C@H](Cc2ccc(-c3ccncc3)cc2)NC(=O)[C@H](C)NC(=O)CN(CCCC(=O)O)C(=O)CSC[C@H](C(N)=O)NC(=O)[C@H](Cc2ccccc2)N(C)C(=O)[C@H](C)N(C)C(=O)[C@H](CC(C)C)NC(=O)[C@H](Cc2ccccc2)N(C)C(=O)[C@H](CCCNC(=N)N)NC(=O)[C@H](Cc2ccc(OCC(=O)O)cc2)NC(=O)[C@H](Cc2cccc(OCC(=O)O)c2)NC(=O)[C@H](C)N(C)C1=O [Myostatin_99_v123] ({CH2CO}-[Gly(N(CH2)3COOH)]A[Phe(4-(4-pyridyl))]Y[NMeF]I[NMeA][Phe(3-OCH2COOH)]Y(Carboxymethyl)R[NMeF]L[NMeA][NMeF][dC]-NH2; thioether N-15) | 194 |
| 17.1 | 2270 | CC[C@H](C)[C@@H]1NC(=O)[C@H](Cc2ccccc2)N(C)C(=O)[C@H](Cc2ccc(O)cc2)NC(=O)[C@H](Cc2c[nH]c3ccccc23)NC(=O)[C@H](C)NC(=O)CN(CCCC(=O)O)C(=O)CSC[C@H](C(=O)O)NC(=O)[C@H](Cc2ccccc2)N(C)C(=O)[C@H](C)N(C)C(=O)[C@H](CC(C)C)NC(=O)[C@H](Cc2ccccc2)N(C)C(=O)[C@H](CCCNC(=N)N)NC(=O)[C@H](Cc2ccc(OCC(=O)O)cc2)NC(=O)[C@H](Cc2cccc(OCC(=O)O)c2)NC(=O)[C@H](C)N(C)C1=O [Myostatin_99_v124] ({CH2CO}-[Gly(N(CH2)3COOH)]AWY[NMeF]I[NMeA][Phe(3-OCH2COOH)]Y(Carboxymethyl)R[NMeF]L[NMeA][NMeF][dC]-OH; thioether N-15) | 133 |
| 22.6 | 3290 | CC(C)C[C@@H]1NC(=O)[C@H](Cc2ccccc2)N(C)C(=O)[C@H](CCCNC(=N)N)NC(=O)[C@H](Cc2ccc(OCC(=O)O)cc2)NC(=O)[C@H](Cc2cccc(OCC(=O)O)c2)NC(=O)[C@H](C)N(C)C(=O)[C@H](C2CCCC2)NC(=O)[C@H](Cc2ccccc2)N(C)C(=O)[C@H](Cc2ccc(O)cc2)NC(=O)[C@H](Cc2ccc(-c3ccncc3)cc2)NC(=O)[C@H](C)NC(=O)CN(CCCC(=O)O)C(=O)CSC[C@H](C(=O)O)NC(=O)[C@H](Cc2ccccc2)N(C)C(=O)[C@H](C)N(C)C1=O [Myostatin_99_v135] ({CH2CO}-[Gly(N(CH2)3COOH)]A[Phe(4-(4-pyridyl))]Y[NMeF][Gly(cPent)][NMeA][Phe(3-OCH2COOH)]Y(Carboxymethyl)R[NMeF]L[NMeA][NMeF][dC]-OH; thioether N-15) | 145 |

From patent EP4786487A1, “PEPTIDE” (Peptidream Inc, priority 2023, dated 2025)
